According to US5854276A, “Substance WF16616, process for production thereof, and use thereof” (Fujisawa Pharmaceutical Co., Ltd., priority 1995, dated 1998):
In brackets after ≈: the same amount, converted by molar mass.

Experiments:
[1] = test system: Aspergillus fumigatus FD050; test: Antifungal activity, microbroth dilution in YNBD medium, Aspergillus fumigatus FD050; assay type: cell-based; conditions: 1×10^4 cfu/100 μl/well, 37° C., 22 hours, 0.5% glucose-containing YNBD, microscopical observation
Protocol: (§1) The antifungal activity of WF16616 substnace was measured in a 0.5% glucose-containing yeast nitrogen base (YNBD) medium by a microbroth dilution analysis method using a 96-well microtiter plate. This substance was dissolved in methanol, and was diluted to twice in sequence in the microtiter plate using the YNBD medium. The test microorganism was inoculated at a concentration of 1×10^4 cfu/100 μl/well. Candida albicans and Aspergillus fumigatus were incubated in the above-mentioned plate at 37° C. for 22 hours, and Cryptococcus neoformans at 30° C. for 48 hours, respectively. Then, MIC was measured through microscopical observation.

Candida albicans FP633 = test: Antifungal activity, microbroth dilution in YNBD medium, Candida albicans FP633; assay type: cell-based; conditions: 1×10^4 cfu/100 μl/well, 37° C., 22 hours, 0.5% glucose-containing YNBD, microscopical observation
Protocol: as §1

Candida albicans No. 7 = test: Antifungal activity, microbroth dilution in YNBD medium, Candida albicans No. 7; assay type: cell-based; conditions: 1×10^4 cfu/100 μl/well, 37° C., 22 hours, 0.5% glucose-containing YNBD, microscopical observation
Protocol: as §1

ICR female mice = test: Toxicity test, intraperitoneal injection in mice; assay type: in vivo; conditions: 5 mg/kg intraperitoneally once a day for three days
Protocol: WF16616 substance was intraperitoneally injected into each of five 5-week-old ICR female mice at a dose of 5 mg/kg once a day for three days.

[2] = test system: Cryptococcus neoformans YC203; test: Antifungal activity, microbroth dilution in YNBD medium, Cryptococcus neoformans YC203; assay type: cell-based; conditions: 1×10^4 cfu/100 μl/well, 30° C., 48 hours, 0.5% glucose-containing YNBD, microscopical observation
Protocol: as §1

CCC(C)CC(C)CCCCCCCCC(=O)NC1CC(O)C(O)NC(=O)C2C(O)C(C)CN2C(=O)C(C(O)CC(N)=O)NC(=O)C(C(O)C(O)c2ccc(O)c(OS(=O)(=O)O)c2)NC(=O)C2CC(O)CN2C(=O)C(C(C)O)NC1=O (stereo not drawn) [WF16616 substance]
MIC [1]: 0.16 µg/mL (≈ 0.136 µM)
MIC (Candida albicans FP633): 0.1 µg/mL (≈ 0.0851 µM)
MIC (Candida albicans No. 7): 0.78 µg/mL (≈ 0.664 µM)
dead mice (ICR female mice; five 5-week-old ICR female mice): none of the mice were dead
increase in the weight of mice (ICR female mice; versus unadministered mice): quite the same as that in the weight of unadministered mice
MIC [2]: > 50 µg/mL
